Laboratory results from ChEMBL document CHEMBL1201862, “PubChem BioAssay data set” (2004).
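48-hour exposure; five concentrations; linearly interpolated endpoints. At the GI50, growth is halved.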 Active and inactive are the calls of the source. Rule as the data show it: active = GI50 up to about 1.1 µM and inactive = higher.

Columns and labels:
Experiment in all cases: NCI-60 cell line screen, 48 h
[1] = tested on: T47D
[2] = tested on: OVCAR-4
[3] = tested on: MCF7
[4] = tested on: MDA-N
[5] = tested on: SK-OV-3
[6] = tested on: IGROV-1
[7] = tested on: NCI-H226
[8] = tested on: UO-31
[9] = tested on: HOP-92
[10] = tested on: NCI/ADR-RES
[11] = tested on: OVCAR-8
[12] = tested on: LOX IMVI
[13] = tested on: DU-145
[14] = tested on: COLO 205
[15] = tested on: PC-3
[16] = tested on: TK-10
[17] = tested on: 786-0
[18] = tested on: MDA-MB-231
[19] = tested on: A498
[20] = tested on: SR

SMILES | GI50 [1] | GI50 [2] | GI50 [3] | GI50 [4] | GI50 [5] | GI50 [6] | GI50 [7] | GI50 [8] | GI50 [9] | GI50 [10] | GI50 [11] | GI50 [12] | GI50 [13] | GI50 [14] | GI50 [15] | GI50 [16] | GI50 [17] | GI50 [18] | GI50 [19] | GI50 [20]
CSc1nc(Cl)c2c(n1)Sc1nc3cc4c(cc3n1C2O)OCCO4 (stereo not drawn) | 15.4 µM (inactive) | 14.6 µM (inactive) | 0.053 µM (active) | 0.0308 µM (active) | 0.445 µM (active) | 0.138 µM (active) | 0.276 µM (active) | 0.112 µM (active) | 0.875 µM (active) | 0.149 µM (active) | 0.106 µM (active) | < 0.0162 µM (active) | 0.124 µM (active) | 0.0509 µM (active) | 0.045 µM (active) | 0.962 µM (active) | 0.0336 µM (active) | 0.321 µM (active) | 0.708 µM (active) | 
O=C1Oc2ccccc2C(=O)/C1=C/NC(=S)NCc1ccccc1 | 81.7 µM (inactive) | 73.8 µM (inactive) | > 100 µM (inactive) | 50.5 µM (inactive) | > 100 µM (inactive) | 38.8 µM (inactive) | > 100 µM (inactive) | 16.2 µM (inactive) | > 100 µM (inactive) | 66.1 µM (inactive) | 41.1 µM (inactive) | 69.3 µM (inactive) | 93.1 µM (inactive) | > 100 µM (inactive) | 54.3 µM (inactive) | 6.34 µM (inactive) | 64.1 µM (inactive) | 71 µM (inactive) |  | 
OC1OC(c2ccco2)C(F)(F)C(F)(F)C1(F)F (stereo not drawn) | 46.2 µM (inactive) | 43.2 µM (inactive) | > 100 µM (inactive) | > 100 µM (inactive) | > 100 µM (inactive) | > 100 µM (inactive) | > 100 µM (inactive) | 59.6 µM (inactive) | 38 µM (inactive) | 61.5 µM (inactive) | > 100 µM (inactive) | > 100 µM (inactive) | > 100 µM (inactive) | 82.6 µM (inactive) | > 100 µM (inactive) | > 100 µM (inactive) | > 100 µM (inactive) | 65.6 µM (inactive) | > 100 µM (inactive) | 
CCOC(=O)/C(C(=O)Nc1ccc(F)cc1)=C(/N)N1CCCC1 | > 100 µM (inactive) | > 100 µM (inactive) | > 100 µM (inactive) | > 100 µM (inactive) | > 100 µM (inactive) | > 100 µM (inactive) | > 100 µM (inactive) |  |  | > 100 µM (inactive) | > 100 µM (inactive) | > 100 µM (inactive) | > 100 µM (inactive) | > 100 µM (inactive) | > 100 µM (inactive) | > 100 µM (inactive) | > 100 µM (inactive) | > 100 µM (inactive) | > 100 µM (inactive) | 
Cc1nc(O)nc(N(CCO)/N=C/c2ccc(Cl)cc2)c1C(=O)Nc1ccc(Cl)cc1 | 98.4 µM (inactive) | > 100 µM (inactive) | > 100 µM (inactive) | > 100 µM (inactive) | 58.2 µM (inactive) | > 100 µM (inactive) | 72.6 µM (inactive) | > 100 µM (inactive) | > 100 µM (inactive) | > 100 µM (inactive) | 99.5 µM (inactive) | > 100 µM (inactive) | > 100 µM (inactive) | > 100 µM (inactive) | > 100 µM (inactive) | 85.3 µM (inactive) | > 100 µM (inactive) | 36.7 µM (inactive) | > 100 µM (inactive) | 
N#CCCN(CCC#N)c1ccc(/C=C2\N=C(c3ccccc3)N(NC(N)=S)C2=O)cc1 | > 100 µM (inactive) | > 100 µM (inactive) | > 100 µM (inactive) | > 100 µM (inactive) | > 100 µM (inactive) | > 100 µM (inactive) | > 100 µM (inactive) | > 100 µM (inactive) | > 100 µM (inactive) | > 100 µM (inactive) | > 100 µM (inactive) | > 100 µM (inactive) | > 100 µM (inactive) | > 100 µM (inactive) | > 100 µM (inactive) | > 100 µM (inactive) | > 100 µM (inactive) | > 100 µM (inactive) | > 100 µM (inactive) | 
C[C@]12CCC(=O)C=C1CC[C@@H]1C2CC[C@]2(C)Nc3c(ncn3-c3ccc(F)cc3)CC12 (stereo partly drawn) | 18.3 µM (inactive) | 28.2 µM (inactive) | 18 µM (inactive) | 11.8 µM (inactive) | 39.3 µM (inactive) | 52.4 µM (inactive) | 49.2 µM (inactive) | 27 µM (inactive) | 33.2 µM (inactive) |  | 35.2 µM (inactive) |  | 23.7 µM (inactive) | 15.7 µM (inactive) | 12 µM (inactive) | 27.7 µM (inactive) | 31 µM (inactive) | 42.5 µM (inactive) | 22.3 µM (inactive) | 3.34 µM (inactive)
Fc1sc2c(c1F)C1CCC2C1 (stereo not drawn) | 88.3 µM (inactive) | > 100 µM (inactive) | > 100 µM (inactive) | 63.4 µM (inactive) | > 100 µM (inactive) | 51.2 µM (inactive) | > 100 µM (inactive) | 54 µM (inactive) | > 100 µM (inactive) | 47.1 µM (inactive) | > 100 µM (inactive) | 42.5 µM (inactive) | 85.7 µM (inactive) | 43.2 µM (inactive) | 75.7 µM (inactive) | > 100 µM (inactive) | > 100 µM (inactive) | 83.2 µM (inactive) | > 100 µM (inactive) | 
CN(C)CC1CCC/C(=C\c2ccc(N(C)C)cc2)C1=O (stereo not drawn) | 2.25 µM (inactive) | 2.15 µM (inactive) | 1.02 µM (active) | 7.28 µM (inactive) | 17.8 µM (inactive) | 3.73 µM (inactive) | 18.2 µM (inactive) | 10.4 µM (inactive) | 3.33 µM (inactive) | 25.9 µM (inactive) | 5.45 µM (inactive) | 1.67 µM (inactive) | 17.1 µM (inactive) | 2.58 µM (inactive) | 18.2 µM (inactive) | 1.97 µM (inactive) | 3.34 µM (inactive) | 4.78 µM (inactive) | 17.1 µM (inactive) | 
CN(c1ccccc1Cl)S(=O)(=O)c1ccccc1[N+](=O)[O-] | 90.6 µM (inactive) | > 100 µM (inactive) | > 10 µM (inactive) | 33.9 µM (inactive) | 51.5 µM (inactive) | 70.1 µM (inactive) | 41.5 µM (inactive) | 31.6 µM (inactive) |  | 27.9 µM (inactive) | 56.8 µM (inactive) | 42.6 µM (inactive) | 91.6 µM (inactive) | 34.2 µM (inactive) | 24.7 µM (inactive) | 82 µM (inactive) | 58.9 µM (inactive) | 37.2 µM (inactive) |  | 35.5 µM (inactive)
N/C(=N\O)N/N=C/c1cc(I)cc(I)c1O | 48.1 µM (inactive) | 27.6 µM (inactive) | 10 µM (inactive) | 82.6 µM (inactive) | 75.5 µM (inactive) | 30.8 µM (inactive) | 0.627 µM (active) |  |  | 2.8 µM (inactive) | 27.9 µM (inactive) | 25.4 µM (inactive) | 31.6 µM (inactive) | 27 µM (inactive) | 37.2 µM (inactive) | 57.7 µM (inactive) | 22.2 µM (inactive) | 54.8 µM (inactive) | > 100 µM (inactive) | 
CC(C)C1CCC(=O)CC1CCCCC1CC(=O)CC1O[Si](C)(C)C(C)(C)C (stereo not drawn) | 14.2 µM (inactive) | 12.7 µM (inactive) | 4.12 µM (inactive) | 4.16 µM (inactive) | 11.9 µM (inactive) | 2.84 µM (inactive) | 3.9 µM (inactive) | 7.66 µM (inactive) | 3.3 µM (inactive) | 4.25 µM (inactive) | 3.83 µM (inactive) | 2.84 µM (inactive) | 17 µM (inactive) | 4.21 µM (inactive) | 7.53 µM (inactive) | 10.5 µM (inactive) | 3.89 µM (inactive) | 14.6 µM (inactive) | 8.09 µM (inactive) | 
[BH3-][P+]1(CC[P@@+]([BH3-])(c2ccccc2)c2ccccc2OC)[C@@H](C)[C@@H](O)[C@H](O)[C@@H]1C (stereo partly drawn) | 15.9 µM (inactive) | 16.8 µM (inactive) | 18.2 µM (inactive) | 16 µM (inactive) | 22.8 µM (inactive) | 17.3 µM (inactive) | 17.3 µM (inactive) | 10.1 µM (inactive) | 16.6 µM (inactive) | 16.5 µM (inactive) | 17.5 µM (inactive) | 2.44 µM (inactive) | 17.3 µM (inactive) | 17.8 µM (inactive) | 15 µM (inactive) | 17.8 µM (inactive) | 27.2 µM (inactive) | 16 µM (inactive) | 18 µM (inactive) | 
Nc1nc(Cl)cc(Nc2cc(Cl)cc(Cl)c2)n1 | 37 µM (inactive) | 21.7 µM (inactive) | 18.1 µM (inactive) | 23 µM (inactive) | 19.5 µM (inactive) | 18.7 µM (inactive) | 18.7 µM (inactive) | 19.6 µM (inactive) | 21.5 µM (inactive) | 21 µM (inactive) | 14.2 µM (inactive) | 18.1 µM (inactive) | 26.1 µM (inactive) | 22.4 µM (inactive) | 19.7 µM (inactive) | 20.4 µM (inactive) | 17.4 µM (inactive) | 20 µM (inactive) | 25.9 µM (inactive) | 
CC(C)=CCC/C(C)=C/Cc1cc(/C=C/c2cc(O)c(CC=C(C)C)c(O)c2)cc(O)c1O [MAPPAIN] | 1.84 µM (inactive) | 1.94 µM (inactive) | 3.45 µM (inactive) | 2.41 µM (inactive) | 8.87 µM (inactive) | 1.76 µM (inactive) | 8.59 µM (inactive) | 1.29 µM (inactive) | 3.93 µM (inactive) | 3.15 µM (inactive) | 3.6 µM (inactive) | 2.31 µM (inactive) | 13.7 µM (inactive) | 17.3 µM (inactive) | 3.36 µM (inactive) | 3.32 µM (inactive) | 4.6 µM (inactive) | 11.2 µM (inactive) | 6.56 µM (inactive) | 
